From PMC12133982, “Predominant T-cell epitopes of SARS-CoV-2 restricted by multiple prevalent HLA-B and HLA-C allotypes in Northeast Asia” (Frontiers in Immunology, 2025)
Peptide text beside a SMILES is read from it.

What was measured:
HLA-C0701 = HLA-C0701 (Homo sapiens, UniProt P10321, K90N/S123Y); assay: Competitive peptide binding assay, CIR-C0701; conditions: HMy2.CIR-C0701 cells, reference Cy5-[…], class from inhibition at 5 and 15 μM, flow cytometry MFI; read-out: Binding affinity with HLA-C 0701
Procedure: (§1) Then, competitive peptide binding assays were performed.

HLA-C0102 = HLA-C0102 (Homo sapiens, UniProt P10321, A176E/A330V/A35S/A97T/C350S/D114A/D33F/L171W/L180R/L218V/M285V/M309V/M331V/P208H/Q277E/Q291P/R121W/R243W/R30K/S123C/S140Y/S297R/T329A/T363A/V272M/V319A); assay: Competitive peptide binding assay, CIR-C0102; conditions: HMy2.CIR-C0102 cells, reference Cy5-[…], class from inhibition at 5 and 15 μM, flow cytometry MFI; read-out: Binding affinity with HLA-C0102
Procedure: as §1

HLA-C0401 = HLA-C0401 (Homo sapiens, UniProt P10321, A176E/A330V/A35S/A73E/C25G/C350S/D138N/D33S/E299K/L171W/L180R/L218V/M285V/M309V/M331V/N104K/P208H/Q277E/Q291P/R243W/R38W/S101N/S123F/S140F/S297R/S48A/T329A/T363A/V319A/V327M); assay: Competitive peptide binding assay, CIR-C0401; conditions: HMy2.CIR-C0401 cells, reference Cy5-[…], class from inhibition at 5 and 15 μM, flow cytometry MFI; read-out: Binding affinity with HLA-C0401
Procedure: as §1

HLA-C0602 = HLA-C0602 (Homo sapiens, UniProt P10321, A176E/A330V/C350S/L171W/L180W/L218V/M285V/M309V/M331V/N104K/P208H/Q277E/Q291P/R121W/S101N/S123Y/S297R/T329A/T363A/V319A/V328M); assay: Competitive peptide binding assay, CIR-C0602
HLA-C0702 = HLA-C0702 (Homo sapiens, UniProt P10321); assay: Competitive peptide binding assay, CIR-C0702
HLA-C0302 = HLA-C0302 (Homo sapiens, UniProt P10321, A176E/A330V/A97T/C25G/C350S/D114A/D33Y/E197K/L127V/L171W/L218V/M285V/M309V/M331V/P208H/Q277E/Q291P/R243W/R45H/S123Y/S297R/S48A/T118I/T187L/T329A/T363A/V319A); assay: Competitive peptide binding assay, CIR-C0302; conditions: HMy2.CIR-C0302 cells, reference Cy5-[…], class from inhibition at 5 and 15 μM, flow cytometry MFI; read-out: Binding affinity with HLA-C0302
Procedure: as §1

HLA-C0801 = HLA-C0801 (Homo sapiens, UniProt P10321, A176T/A330V/A97T/C350S/D114A/D138N/D33Y/E201K/E299G/L171W/L218V/M285V/M309V/M331V/P208H/Q277E/Q291P/R59Q/S123Y/S140F/S297R/S48A/T329A/T363A/V319A/V328M); assay: Competitive peptide binding assay, CIR-C0801; conditions: HMy2.CIR-C0801 cells, reference Cy5-[…], class from inhibition at 5 and 15 μM, flow cytometry MFI; read-out: Binding affinity with HLA-C0801
Procedure: as §1

HLA-B5801 = HLA-B5801 (Homo sapiens, UniProt P01889, A329T/C349S/D201E/D98Y/E176V/E187L/E204Q/E69T/G107R/I218V/I90N/K202T/L105A/L119I/N104I/N87E/Q89R/Q94S/R106L/R155S/R180L/R86G/S101N/S121R/S35A/S48A/T118I/V127L/V306I/V36M/Y140S/Y91M); assay: Competitive peptide binding assay, CIR-B5801; conditions: HMy2.CIR-B5801 cells, reference Cy5-[…], class from inhibition at 5 and 15 μM, flow cytometry MFI; read-out: Binding affinity with HLA-B5801
Procedure: as §1

HLA-B1502 = HLA-B1502 (Homo sapiens, UniProt P01889, A329T/A93T/A95T/C349S/D201E/D98Y/E187L/E204Q/E69M/E70A/H137Y/K202T/L119I/Q94N/R155S/R180L/S121R/S35A/S48A/T118I/V306I/V36M/Y140S/Y91S); assay: Competitive peptide binding assay, CIR-B1502; conditions: HMy2.CIR-B1502 cells, reference Cy5-[…], class from inhibition at 5 and 15 μM, flow cytometry MFI; read-out: Binding affinity with HLA-B1502
Procedure: as §1

HLA-B3501 = HLA-B3501 (Homo sapiens, UniProt P01889, A329T/A93T/A95T/C349S/D201E/D98Y/E176V/E187L/E204Q/E69T/I218V/K202T/L119I/Q94N/R155S/R180L/S121R/S35A/S48A/T118I/V127L/V306I/V36M/Y140S/Y91F); assay: Competitive peptide binding assay, CIR-B3501; conditions: HMy2.CIR-B3501 cells, reference Cy5-[…], class from inhibition at 5 and 15 μM, flow cytometry MFI; read-out: Binding affinity with HLA-B3501
Procedure: as §1

HLA-B1501 = HLA-B1501 (Homo sapiens, UniProt P01889, A329T/A93T/A95T/C349S/D201E/D98Y/E187L/E204Q/E69M/E70A/K202T/N87E/Q94N/R155S/R180W/S121R/S35A/S48A/V306I/V36M/Y140S/Y91S); assay: Competitive peptide binding assay, CIR-B1501; conditions: HMy2.CIR-B1501 cells, reference Cy5-[…], class from inhibition at 5 and 15 μM, flow cytometry MFI; read-out: Binding affinity with HLA-B1501
Procedure: as §1

HLA-B4801 = HLA-B4801 (Homo sapiens, UniProt P01889, A269T/A93T/A95T/D138N/D98Y/E176V/N87E/Q94N/R180L/T167S/W171L/Y91S); assay: Competitive peptide binding assay, CIR-B4801; conditions: HMy2.CIR-B4801 cells, reference Cy5-[…], class from inhibition at 5 and 15 μM, flow cytometry MFI; read-out: Binding affinity with HLA-B4801
Procedure: as §1

HLA-B4001 = HLA-B4001 (Homo sapiens, UniProt P01889, A65T/A93T/A95T/D138N/D98Y/E176V/E69K/N87E/Q56L/Q94N/R180L/S121R/S35A/S48T/T167S/V36M/W171L/Y33H/Y91S); assay: Competitive peptide binding assay, CIR-B4001; conditions: HMy2.CIR-B4001 cells, reference Cy5-[…], class from inhibition at 5 and 15 μM, flow cytometry MFI; read-out: Binding affinity with HLA-B4001
Procedure: as §1

HLA-B5101 = HLA-B5101 (Homo sapiens, UniProt P01889, A329T/A93T/A95T/C349S/D138N/D201E/D98Y/E187L/E204Q/E69T/G107R/I218V/K202T/L105A/L119W/N104I/Q94N/R106L/R155S/R180L/S101N/S121T/S35A/S48A/V306I/V36M/Y195H/Y91F); assay: Competitive peptide binding assay, CIR-B5101; conditions: HMy2.CIR-B5101 cells, reference Cy5-[…], class from inhibition at 5 and 15 μM, flow cytometry MFI; read-out: Binding affinity with HLA-B5101
Procedure: as §1

HLA-B1302 = HLA-B1302 (Homo sapiens, UniProt P01889, A65T/A93T/A95T/D138N/D201E/D98Y/E176V/E204Q/E69M/E70A/G107R/K202T/L105A/L119W/N104T/N87E/Q94N/R106L/R155S/R169L/R180L/S101N/S121T/S35A/S48T/V127L/V36M/Y140L/Y91S); assay: Competitive peptide binding assay, CIR-B1302; conditions: HMy2.CIR-B1302 cells, reference Cy5-MMWYWGPSL, class from inhibition at 5 and 15 μM, flow cytometry MFI; read-out: Binding affinity with HLA-B1302
Procedure: as §1

HLA-B4601 = HLA-B4601 (Homo sapiens, UniProt P01889, A329T/A93R/C349S/D201E/E100V/E187L/E204Q/E69M/E70A/I90K/K202T/N87E/R155S/R180W/S121R/S35A/S48A/V306I/V36M/Y140S); assay: Competitive peptide binding assay, CIR-B4601; conditions: HMy2.CIR-B4601 cells, reference Cy5-[…], class from inhibition at 5 and 15 μM, flow cytometry MFI; read-out: Binding affinity with HLA-B4601
Procedure: as §1

HLA-B1301 = HLA-B1301 (Homo sapiens, UniProt P01889, A65T/A93T/A95T/D138N/D201E/D98Y/E176V/E204Q/E69M/E70A/G107R/K202T/L105A/L119I/N104T/N87E/Q94N/R106L/R155S/R169L/R180L/S101N/S121R/S35A/S48T/T118I/V127L/V36M/Y140L/Y91S); assay: Competitive peptide binding assay, CIR-B1301; conditions: HMy2.CIR-B1301 cells, reference Cy5-[…], class from inhibition at 5 and 15 μM, flow cytometry MFI; read-out: Binding affinity with HLA-B1301
Procedure: as §1

| SMILES | IC50 (HLA-C0701) [µM] | IC50 (HLA-C0102) [µM] | IC50 (HLA-C0401) [µM] | IC50 (HLA-C0602) [µM] | IC50 (HLA-C0702) [µM] | IC50 (HLA-C0302) [µM] | IC50 (HLA-C0801) [µM] | IC50 (HLA-B5801) [µM] | IC50 (HLA-B1502) [µM] | IC50 (HLA-B3501) [µM] | IC50 (HLA-B1501) [µM] | IC50 (HLA-B4801) [µM] | IC50 (HLA-B4001) [µM] | IC50 (HLA-B5101) [µM] | IC50 (HLA-B1302) [µM] | IC50 (HLA-B4601) [µM] | IC50 (HLA-B1301) [µM] |
| --- | --- | --- | --- | --- | --- | --- | --- | --- | --- | --- | --- | --- | --- | --- | --- | --- | --- |
| C[C@H](NC(=O)[C@H](Cc1ccc(O)cc1)NC(=O)[C@H](C)NC(=O)[C@@H](N)Cc1ccccc1)C(=O)N[C@@H](CC(N)=O)C(=O)N[C@@H](CCCNC(=N)N)C(=O)N[C@@H](CC(N)=O)C(=O)N[C@@H](CCCNC(=N)N)C(=O)N[C@@H](Cc1ccccc1)C(=O)O [Epitope M43] (H-FAYANRNRF-OH; N-terminus and C-terminus assumed) | < 5 | > 15 | > 15 | 5 to 15 | 5 to 15 |  |  |  |  |  |  |  |  |  |  |  |  |
| CSCC[C@H](NC(=O)[C@H](CO)NC(=O)[C@H](CCCNC(=N)N)NC(=O)[C@@H](NC(=O)[C@H](CCCNC(=N)N)NC(=O)[C@H](C)NC(=O)[C@@H](N)Cc1ccccc1)[C@@H](C)O)C(=O)N[C@@H](Cc1c[nH]c2ccccc12)C(=O)N[C@@H](CO)C(=O)N[C@@H](Cc1ccccc1)C(=O)O [Epitope M71] (H-FARTRSMWSF-OH; N-terminus and C-terminus assumed) | 5 to 15 |  | > 15 | > 15 | 5 to 15 | < 5 | > 15 |  |  |  |  |  |  |  |  |  |  |
| CC(C)C[C@H](NC(=O)[C@H](CCC(=O)O)NC(=O)[C@H](CCCCN)NC(=O)[C@H](Cc1ccccc1)NC(=O)[C@H](CO)NC(=O)[C@@H](N)CC(C)C)C(=O)N[C@@H](CC(C)C)C(=O)N[C@H](C(=O)N[C@@H](Cc1ccc(O)cc1)C(=O)O)C(C)C [Epitope Y142] (H-LSFKELLVY-OH; N-terminus and C-terminus assumed) |  |  |  |  |  |  |  | < 5 | > 15 | > 15 | 5 to 15 | > 15 | > 15 |  |  |  |  |
| CC(C)C[C@H](NC(=O)[C@H](CC(=O)O)NC(=O)[C@@H](NC(=O)[C@H](CC(=O)O)NC(=O)[C@@H](NC(=O)[C@H](Cc1c[nH]cn1)NC(=O)[C@H](CO)NC(=O)[C@H](CCC(=O)O)NC(=O)[C@H](C)N)C(C)C)[C@@H](C)O)C(=O)O [Epitope Y198] (H-AESHVDTDL-OH; N-terminus and C-terminus assumed) |  |  |  |  |  |  |  | > 15 | > 15 | > 15 | > 15 | > 15 |  | > 15 | 5 to 15 | > 15 |  |
| CSCC[C@H](NC(=O)[C@H](C)NC(=O)[C@H](CCC(=O)O)NC(=O)[C@H](Cc1ccc(O)cc1)NC(=O)[C@H](Cc1ccccc1)NC(=O)[C@H](CCC(=O)O)NC(=O)[C@@H]1CCCN1C(=O)[C@H](CCC(=O)O)NC(=O)[C@@H](N)Cc1c[nH]c2ccccc12)C(=O)O [Epitope Y200] (H-WEPEFYEAM-OH; N-terminus and C-terminus assumed) |  |  |  |  |  |  |  | > 15 |  | > 15 | > 15 | > 15 |  |  | > 15 |  | > 15 |
| CC[C@H](C)[C@H](NC(=O)[C@H](C)NC(=O)[C@H](C)NC(=O)[C@H](CC(N)=O)NC(=O)CNC(=O)[C@H](CC(=O)O)NC(=O)[C@H](CCC(N)=O)NC(=O)[C@H](C)NC(=O)[C@@H](N)Cc1ccccc1)C(=O)O [Epitope Y246] (H-FAQDGNAAI-OH; N-terminus and C-terminus assumed) |  |  |  |  |  |  |  | > 15 | > 15 | > 15 | > 15 | > 15 |  |  | > 15 |  | > 15 |
| C[C@H](NC(=O)[C@H](CO)NC(=O)[C@@H](N)CCCCN)C(=O)NCC(=O)N[C@@H](Cc1ccccc1)C(=O)N1CCC[C@H]1C(=O)N[C@@H](Cc1ccccc1)C(=O)N[C@@H](CC(N)=O)C(=O)N[C@@H](CCCCN)C(=O)N[C@@H](Cc1c[nH]c2ccccc12)C(=O)O [Epitope Y306] (H-KSAGFPFNKW-OH; N-terminus and C-terminus assumed) |  |  |  |  |  |  |  |  |  |  | > 15 | > 15 | > 15 |  | < 5 |  |  |
